Data taken from patent US12491188B2, “Small molecule PARG inhibitors and methods of use thereof” (Board of Regents, The University of Texas System, priority 2019, dated 2025).

Tests used:
[1] = test system: MDA-MB-231 control and PARG-KD cells; test: Sulforhodamine B (SRB) cytotoxicity, control vs PARG-KD cells; type: cell-based, human; conditions: 72 h
From the text: Sulforhodamine B (SRB) Cytotoxicity Assay.

HeLa cells = test: DNA fiber assay, replication fork progression; type: cell-based; conditions: 10 μM, 2 hrs pretreatment
Description: DNA fiber assay. DNA fiber assay was conducted as described previously (Castillo et al. 2014). Briefly, cells pretreated with JA2131 (10 μM) or DMSO for 2 hrs were labeled with 100 μM CldU for 30 min and exposed to 250 μM IdU (with or without 0.4 mM hydroxyurea treatment) for another 30 min or 3 hrs. After labeling and treatment, cells were lysed and DNA fibers stretched onto glass slides. Immunofluorescence was carried out using α-IdU/α-BrdU (BD Biosciences) and α-CldU/α-BrdU (Abcam) and secondary antibodies, including Alexa Fluor 488 (green) and Alexa Fluor 555 (Invitrogen). Images were taken using a Nikon 80 microscope and analyzed using ImageJ software. Statistics were calculated using Prism software. 5-Chloro-2′-deoxyuridine (CIdU) and 5-Iodo-2′-deoxyuridine (IdU) were from Sigma.

[2] = test system: PC3, MDA-MB-231 and MCF-7 cell lines; test: Clonogenic cell-survival assay; type: cell-based, human; conditions: 10 μM, 2 hours, 3 Gy IR, 2-3 weeks
Description: FIGS. 14a-c show selective inhibition of PARG by xanthine derivative JA2131. (FIG. 14a) PARG knockdown MDA-MB-231 cells were treated with 5 μM JA2131 or PDD for two hours, lysed and total lysates were immunoblotted for anti-PAR (upper panel) followed by anti-PARG (upper middle), anti-PARP1 (lower middle) and anti-actin (bottom). (FIG. 14b) Clonogenic assay radiation dose determination for MDA-MB-231, MCF-7 and PC3 cells. 500 cells were exposed to indicated dose of radiation and colonies were allowed to form for each cell-lines. The surviving colonies from each group were counted and normalized against non-irradiated. The results of three independent experiments are shown here. Error bars=SEM. (FIG. 14c) Clonogenic survival assays of PC3, MDA MB231 and MCF-7 cells treated with PARGi. 500 cells were treated with either DMSO or 10 μM JA2131 for 2 hours, irradiated 3Gy ionizing radiation and grown for approximately 2-3 weeks, then colonies were fixed methanol and stained with crystal violet. Cells were analysed as above. The results of three independent experiments are shown here. Error bars=SEM.
Cell culture. […] Cells were fixed with methanol (100%), stained with crystal violet and analyzed using a GelCount instrument (Oxford Optronix Ltd). […]

[3] = test system: MDA-MB-231 control and PARG-KD cells; test: Western blot of cellular PARylation (anti-PAR); type: cell-based, human
Description: Thus, dose-dependent JA2131-induced cellular PARylation with and without IR was investigated. For combined IR treatment, MDA-MB-231 cells were treated with JA2131 for 2 h, followed by 7 Gy X-ray and then allowed to recover for an hour before cellular extraction and Western blotting analysis.
Using shRNA, next, a stable MDA-MB-231 PARG knockdown (PARG-KD) cell-line was generated (FIG. 23). Comparison of PARGi JA2131-induced PARylation in PARG-KD and control cells was performed. It was reasoned that PARG-KD cells would show a reduced response to a selective PARGi as the stable PARG-KD cells would have to adopt a PARG-independent survival mechanism. MDA-MB-231 control cells and PARG-KD cells were treated with JA2131 then total cell lysates were subjected to immunoblotting with anti-PAR antibody, followed by immunodetection for anti-PARG, PARP1 and actin antibody (FIG. 22b). Untreated PARG-KD cells show a higher baseline level of PARylation than the control cells. […] Dose-response curves comparing control and PARG-KD cells further validate the selective action of JA2131 on control cells expressing PARG, but not on the PARG-KD cells (FIG. 25).
Antibodies and western blots. Cells were grown in 6-well plates and 10 cm dishes, treated with PARGi for 2 hours, irradiated and recovered for 1 hour before harvesting. Cells were irradiated, ranging from 1 to 10 Gy using RAD SOURCE, RS-2000, Biological System, RadSource.com. Cells were washed with phosphate buffer and saline (PBS) and lysed with buffer containing 50 mM Hepes, pH 7.5, 1% (v/v) igepal-C630, 1 mg/ml bacitracin, 1 mM EDTA, 10 mM NaF, 1 mM sodium orthovanadate, 10% (v/v) glycerol, 50 mM NaCl, 1 mM PMSF, and Protease Inhibitor Cocktail Set III (EMD Millipore). The detergent-soluble fraction was used for Western blotting. Cell fractionation was carried out using the Subcellular Protein Fractionation Kit (#78840, ThermoFisher) according to the manufacturer's instruction. Primary antibodies were purchased from the following sources; Actin, γH2AX and Histone-H3 was from Cell Signaling Technology. H2AX and LAMB1 were from Invitrogen/ThermoFisher. PCNA and p53 were from Santa Cruz biotechnology. Anti-PAR (10H) was from EMD Millipore, anti-PARG was from Cell Signaling Technology, and Anti-PARP1 was from ABCAM. Secondary antibodies were conjugated HRP (Cell Signaling) and ECL Clarity was purchased from Bio-Rad. All primary and secondary antibodies were diluted 1:1000 with 5% non-fat Blotting Grade Blocking Reagent in 1× TBST, except for anti-PAR 1:500.

PARP1 = PARP1 (Homo sapiens (Human), UniProt P09874); test: In vitro PARP1 auto-PARylation
Chain of PARP1 (P09874 whole entry): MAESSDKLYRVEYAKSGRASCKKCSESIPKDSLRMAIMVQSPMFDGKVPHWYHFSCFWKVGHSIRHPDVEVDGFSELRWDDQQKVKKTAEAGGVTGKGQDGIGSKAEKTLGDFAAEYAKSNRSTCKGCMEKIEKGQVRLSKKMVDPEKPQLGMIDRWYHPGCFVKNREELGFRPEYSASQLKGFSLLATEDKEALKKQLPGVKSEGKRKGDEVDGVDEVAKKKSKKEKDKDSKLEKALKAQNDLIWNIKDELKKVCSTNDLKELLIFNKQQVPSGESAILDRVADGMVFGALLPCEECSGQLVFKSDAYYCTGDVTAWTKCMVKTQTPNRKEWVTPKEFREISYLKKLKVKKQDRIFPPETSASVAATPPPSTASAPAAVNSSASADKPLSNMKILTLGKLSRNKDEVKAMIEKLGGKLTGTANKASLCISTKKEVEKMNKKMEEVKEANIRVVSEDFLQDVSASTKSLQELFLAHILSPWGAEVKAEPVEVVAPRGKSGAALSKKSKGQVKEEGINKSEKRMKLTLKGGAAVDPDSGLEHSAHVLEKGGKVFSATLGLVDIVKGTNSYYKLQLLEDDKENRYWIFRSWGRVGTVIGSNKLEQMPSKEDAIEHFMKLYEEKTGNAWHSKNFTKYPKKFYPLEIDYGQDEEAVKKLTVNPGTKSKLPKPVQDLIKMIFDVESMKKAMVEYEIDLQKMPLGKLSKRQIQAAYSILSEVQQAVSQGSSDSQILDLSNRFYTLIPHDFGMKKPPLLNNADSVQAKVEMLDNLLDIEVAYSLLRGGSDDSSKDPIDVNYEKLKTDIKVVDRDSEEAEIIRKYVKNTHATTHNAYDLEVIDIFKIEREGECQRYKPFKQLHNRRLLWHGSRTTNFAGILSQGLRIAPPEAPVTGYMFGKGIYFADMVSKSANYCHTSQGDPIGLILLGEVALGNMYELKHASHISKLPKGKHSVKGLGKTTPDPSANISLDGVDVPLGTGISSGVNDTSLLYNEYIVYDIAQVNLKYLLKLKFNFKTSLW

With `O=C1C(Cl)=C(Cl)C(Cl)(Cl)C(Cl)=C1Cl` [JA2131] the “IC50 value for PARG-depleted cells compared to control cells” value [1] was about 10 fold, the “PARG-KD cells that responded to the PARGi” value [1] was 50% and the “average IdU tract” value (HeLa cells; absence of genotoxic stress) was 6.0 μm. For the same compound, the “average IdU tract length” value (HeLa cells; low dose of hydroxyurea) was 5.0 μm, the colony formation [2] was “inhibits colony formation in all three cell lines” and the “cellular PARylation, PARGi combined with IR” value ([3]; MDA-MB-231, 100 nM, 2 h, 7 Gy X-ray, 1 h recovery) was “massive increase in cellular PARylation”. For the same compound, the “cellular PARylation, PARGi alone” value ([3]; MDA-MB-231, without IR, 1 to 5 μM doses) was “dose-dependent increase in cellular PARylation”, the “PAR accumulation in PARG-KD cells” value ([3]; MDA-MB-231 PARG knockdown cells) was “did not affect the level of PAR accumulation” and the “PAR accumulation in control cells expressing PARG” value ([3]; MDA-MB-231 control cells) was “measurable increase in PAR”. The “concentration up to which PARP1 activation was not inhibited” value (PARP1; in vitro PARP1 auto PARylation) was over 100 µM and the “effect on PARP1 auto-PARylation / PAR synthesis by PARP1” value (PARP1; increasing concentration of compound) was “no effect”.
